In US20240376099A1, “COMPOUNDS AND COMPOSITIONS AS INHIBITORS OF ENDOSOMAL TOLL-LIKE RECEPTORS” (Novartis AG, priority 2016, published 2024) one finds IC50 data, which are given here for 19 compounds.

This assay concerns the target T1, TLR8 (Homo sapiens, UniProt Q9NR97).
T1 sequence (Q9NR97 27-1041): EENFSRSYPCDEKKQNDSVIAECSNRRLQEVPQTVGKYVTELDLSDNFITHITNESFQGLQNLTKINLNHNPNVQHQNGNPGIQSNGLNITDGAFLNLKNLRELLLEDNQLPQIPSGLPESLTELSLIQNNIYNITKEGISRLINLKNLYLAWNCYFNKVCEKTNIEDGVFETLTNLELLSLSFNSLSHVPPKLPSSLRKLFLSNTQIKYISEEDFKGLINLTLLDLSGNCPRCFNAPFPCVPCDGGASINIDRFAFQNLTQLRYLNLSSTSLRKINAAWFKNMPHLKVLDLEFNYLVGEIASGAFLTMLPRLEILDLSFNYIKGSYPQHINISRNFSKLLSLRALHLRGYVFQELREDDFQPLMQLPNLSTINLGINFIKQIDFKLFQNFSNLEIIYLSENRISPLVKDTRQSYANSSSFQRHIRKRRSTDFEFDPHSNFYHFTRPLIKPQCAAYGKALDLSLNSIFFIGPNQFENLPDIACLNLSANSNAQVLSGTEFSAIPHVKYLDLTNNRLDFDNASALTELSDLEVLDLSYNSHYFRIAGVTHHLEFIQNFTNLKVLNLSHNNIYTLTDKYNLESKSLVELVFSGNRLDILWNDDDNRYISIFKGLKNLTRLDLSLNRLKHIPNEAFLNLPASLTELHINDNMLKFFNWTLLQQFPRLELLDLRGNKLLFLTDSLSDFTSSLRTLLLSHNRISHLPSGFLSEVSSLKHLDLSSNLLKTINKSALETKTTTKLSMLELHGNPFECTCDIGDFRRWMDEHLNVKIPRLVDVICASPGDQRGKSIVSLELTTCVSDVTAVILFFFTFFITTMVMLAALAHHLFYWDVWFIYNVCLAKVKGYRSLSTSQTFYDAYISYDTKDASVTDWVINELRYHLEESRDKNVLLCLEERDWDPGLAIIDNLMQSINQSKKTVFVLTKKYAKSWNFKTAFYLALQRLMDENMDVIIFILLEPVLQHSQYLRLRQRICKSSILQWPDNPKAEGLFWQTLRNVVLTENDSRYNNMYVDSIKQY
Kind of assay: huPBMC TLR8 Antagonist IL-6 TR-FRET Assay. The assay is classed as cell-based. On the set-up: Fresh blood was collected from normal human donors; endogenous in cells; host or cells: human PBMCs from fresh donor blood. The following applies: human PBMCs stimulated with ssRNA40 1 μg/ml (DOTAP), 14-16 hrs; IL-6 TR-FRET read-out. In outline: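 Human PBMCs from fresh donor blood (150,000 cells/well) stimulated 14–16 h at 37 °C with DOTAP-complexed ssRNA40 (final 1 μg/ml for TLR8, 10 μg/mL for TLR7) or ODN2216 (final 0.3 μM, TLR9), 0.25% DMSO, ten-point 1/3 compound dilutions. Supernatant IL-6 read by HTRF (TLR8); IFNα by IFNα2b AlphaLISA (TLR7/TLR9).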
On the technique in general: In TR-FRET formats the signal depends on donor and acceptor labels being close together.
The IC50 is the concentration that gives 50% inhibition. Turning to `Cc1cc(N2CCc3c(c(C)nn3CC34CCC(N)(CC3)CC4)C2)c2cnn(C)c2n1` [Compound No. 1, 4-((5-(1,6-dimethyl-1H-pyrazolo[3,4-b]pyridin-4-yl)-3-methyl-4,5,6,7-tetrahydro-1H-pyrazolo[4,3-c]pyridin-1-yl)methyl)bicyclo[2.2.2]octan-1-amine], the IC50 worked out at 0.236 µM.

With `Cc1cc(N2CCc3c(c(C)nn3CC34CCC(N)(CC3)CC4)C2)c2cn[nH]c2n1` [Compound No. 2, 4-((3-methyl-5-(6-methyl-1H-pyrazolo[3,4-b]pyridin-4-yl)-4,5,6,7-tetrahydro-1H-pyrazolo[4,3-c]pyridin-1-yl)methyl)bicyclo[2.2.2]octan-1-amine], the IC50 was above 10 µM.

In the case of `Cc1cc(N2CCc3c(c(C)nn3CC34CCC(N(C)C(=O)OC(C)(C)C)(CC3)CC4)C2)c2cnn(C)c2n1` [Compound No. 49, tert-butyl (4-((5-(1,6-dimethyl-1H-pyrazolo[3,4-b]pyridin-4-yl)-3-methyl-4,5,6,7-tetrahydro-1H-pyrazolo[4,3-c]pyridin-1-yl)methyl)bicyclo[2.2.2]octan-1-yl)(methyl)carbamate], the 50% inhibitory concentration (IC50) was above 10 µM.

Turning to `CNC12CCC(Cn3nc(C)c4c3CCN(c3cc(C)nc5c3cnn5C)C4)(CC1)CC2` [Compound No. 50, 4-((5-(1,6-dimethyl-1H-pyrazolo[3,4-b]pyridin-4-yl)-3-methyl-4,5,6,7-tetrahydro-1H-pyrazolo[4,3-c]pyridin-1-yl)methyl)-N-methylbicyclo[2.2.2]octan-1-amine], the IC50 came out at 0.308 µM.

`Cc1cc(N2CCc3c(c(C)nn3CC34CCC(NC(=O)OC5(C)CC5)(CC3)CC4)C2)c2cnn(C)c2n1` [Compound No. 51, 1-methylcyclopropyl (4-((5-(1,6-dimethyl-1H-pyrazolo[3,4-b]pyridin-4-yl)-3-methyl-4,5,6,7-tetrahydro-1H-pyrazolo[4,3-c]pyridin-1-yl)methyl)bicyclo[2.2.2]octan-1-yl)carbamate]: the IC50 was above 10 µM.

As to `COc1ccc(Cn2ncc3c(N4CCc5c(c(C)nn5CC56CCC(N)(CC5)CC6)C4)cc(C)nc32)cc1` [Compound No. 53, 4-((5-(1-(4-methoxybenzyl)-6-methyl-1H-pyrazolo[3,4-b]pyridin-4-yl)-3-methyl-4,5,6,7-tetrahydro-1H-pyrazolo[4,3-c]pyridin-1-yl)methyl)bicyclo[2.2.2]octan-1-amine], the half-inhibitory concentration (IC50) is 1.14 µM.

In the case of `Cc1cc(N2CCc3c(c(C)nn3CC34CCC(N5CCCC5)(CC3)CC4)C2)c2cnn(C)c2n1` [Compound No. 58, 5-(1,6-dimethyl-1H-pyrazolo[3,4-b]pyridin-4-yl)-3-methyl-1-((4-(pyrrolidin-1-yl)bicyclo[2.2.2]octan-1-yl)methyl)-4,5,6,7-tetrahydro-1H-pyrazolo[4,3-c]pyridine], the 50% inhibitory concentration (IC50) was found to be 0.053 µM.

`Cc1cc(N2CCc3c(c(C)nn3CC34CCC(N5CCOCC5)(CC3)CC4)C2)c2cnn(C)c2n1` [Compound No. 59, 4-(4-((5-(1,6-dimethyl-1H-pyrazolo[3,4-b]pyridin-4-yl)-3-methyl-4,5,6,7-tetrahydro-1H-pyrazolo[4,3-c]pyridin-1-yl)methyl)bicyclo[2.2.2]octan-1-yl)morpholine]: the IC50 came out at 0.052 µM.

Consider `COCCNC12CCC(Cn3nc(C)c4c3CCN(c3cc(C)nc5c3cnn5C)C4)(CC1)CC2` [Compound No. 69, 4-((5-(1,6-dimethyl-1H-pyrazolo[3,4-b]pyridin-4-yl)-3-methyl-4,5,6,7-tetrahydro-1H-pyrazolo[4,3-c]pyridin-1-yl)methyl)-N-(2-methoxyethyl)bicyclo[2.2.2]octan-1-amine], for which the IC50 stood at 0.031 µM.

With `Cc1cc(N2CCc3c(c(C)nn3CC34CCC(N(C)C5COC5)(CC3)CC4)C2)c2cnn(C)c2n1` [Compound No. 77, N-(4-((5-(1,6-dimethyl-1H-pyrazolo[3,4-b]pyridin-4-yl)-3-methyl-4,5,6,7-tetrahydro-1H-pyrazolo[4,3-c]pyridin-1-yl)methyl)bicyclo[2.2.2]octan-1-yl)-N-methyloxetan-3-amine], the half-maximal inhibitory concentration (IC50) came out at 0.316 µM.

Take `Cc1nn(CC23CCC(N)(CC2)CC3)c2c1CN(c1ccnc(-c3ccc(C#N)cc3)c1)CC2` [Compound No. 84, 4-(4-(1-((4-aminobicyclo[2.2.2]octan-1-yl)methyl)-3-methyl-6,7-dihydro-1H-pyrazolo[4,3-c]pyridin-5(4H)-yl)pyridin-2-yl)benzonitrile]: the IC50 was found to be 0.831 µM.

`Cc1cc(N2CCc3c(c(C)nn3CC34CCC(O)(CC3)CC4)C2)c2cnn(C)c2n1` [compound 46, 4-((5-(1,6-dimethyl-1H-pyrazolo[3,4-b]pyridin-4-yl)-3-methyl-4,5,6,7-tetrahydro-1H-pyrazolo[4,3-c]pyridin-1-yl)methyl)bicyclo[2.2.2]octan-1-ol]: the IC50 was above 10 µM.

Consider `Cc1cc(N2CCc3nn(CC45CC(N)(C4)C5)c(C)c3C2)c2cnn(C)c2n1` [compound 52, 3-((5-(1,6-dimethyl-1H-pyrazolo[3,4-b]pyridin-4-yl)-3-methyl-4,5,6,7-tetrahydro-2H-pyrazolo[4,3-c]pyridin-2-yl)methyl)bicyclo[1.1.1]pentan-1-amine], for which the IC50 was above 10 µM.

Regarding `Cc1cc(N2CCc3c(c(C)nn3CC34CCC(NC5CCC5)(CC3)CC4)C2)c2cnn(C)c2n1` [compound 54, N-cyclobutyl-4-((5-(1,6-dimethyl-1H-pyrazolo[3,4-b]pyridin-4-yl)-3-methyl-4,5,6,7-tetrahydro-1H-pyrazolo[4,3-c]pyridin-1-yl)methyl)bicyclo[2.2.2]octan-1-amine], the IC50 is 0.074 µM.

Regarding `Cc1cc(N2CCc3c(c(C)nn3CC34CCC(NC(C)C)(CC3)CC4)C2)c2cnn(C)c2n1` [compound 55, 4-((5-(1,6-dimethyl-1H-pyrazolo[3,4-b]pyridin-4-yl)-3-methyl-4,5,6,7-tetrahydro-1H-pyrazolo[4,3-c]pyridin-1-yl)methyl)-N-isopropylbicyclo[2.2.]octan-1-amine], the IC50 turned out to be 0.42 µM.

With `Cc1cc(N2CCc3c(c(C)nn3CC34CCC(NC(C)CO)(CC3)CC4)C2)c2cnn(C)c2n1` (stereo not shown) [compound 56, 2-((4-((5-(1,6-dimethyl-1H-pyrazolo[3,4-b]pyridin-4-yl)-3-methyl-4,5,6,7-tetrahydro-1H-pyrazolo[4,3-c]pyridin-1-yl)methyl)bicyclo[2.2.2]octan-1-yl)amino)propan-1-ol], the IC50 worked out at 0.292 µM.

With `CCNC12CCC(Cn3nc(C)c4c3CCN(c3cc(C)nc5c3cnn5C)C4)(CC1)CC2` [compound 57, 4-((5-(1,6-dimethyl-1H-pyrazolo[3,4-b]pyridin-4-yl)-3-methyl-4,5,6,7-tetrahydro-1H-pyrazolo[4,3-c]pyridin-1-yl)methyl)-N-ethylbicyclo[2.2.]octan-1-amine], the IC50 came to 0.11 µM.

As for `Cc1cc(N2CCc3c(c(C)nn3CC34CCC(N5CCC5)(CC3)CC4)C2)c2cnn(C)c2n1` [compound 64, 1-((4-(azetidin-1-yl)bicyclo[2.2.2]octan-1-yl)methyl)-5-(1,6-dimethyl-1H-pyrazolo[3,4-b]pyridin-4-yl)-3-methyl-4,5,6,7-tetrahydro-1H-pyrazolo[4,3-c]pyridine], the IC50 came out at 0.115 µM.

For `CCOCCNC12CCC(Cn3nc(C)c4c3CCN(c3cc(C)nc5c3cnn5C)C4)(CC1)CC2` [compound 71, 4-((5-(1,6-dimethyl-1H-pyrazolo[3,4-b]pyridin-4-yl)-3-methyl-4,5,6,7-tetrahydro-1H-pyrazolo[4,3-c]pyridin-1-yl)methyl)-N-(2-ethoxyethyl)bicyclo[2.2.2]octan-1-amine], the half-maximal inhibitory concentration (IC50) came out at 0.014 µM.
